# Measured values: US20250288584A1, “COMBINATIONS COMPRISING POSITIVE ALLOSTERIC MODULATORS OR ORTHOSTERIC AGONISTS OF METABOTROPIC GLUTAMATERGIC RECEPTOR SUBTYPE 2 AND THEIR USE” (JANSSEN PHARMACEUTICA NV, priority 2014, published 2025)
# Where “and” joins values, the source holds several entries; their conditions need not be identical. Equal entries are not always repeated. Entries after “also recorded” stand apart in the source; their conditions may differ. Where two headings read alike, the source gives them in different places.
# Columns and labels:
# Assay type in all cases: in vivo, mice
# [1] = test system: 6 Hz (32 mA) psychomotor seizures; assay: 6 Hz psychomotor seizure test, 32 mA (incl. TPE determination)
# In short: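 Mice dosed s.c. into a loose skin fold (one compound p.o.) at 0.01 mL/g body weight. Focal seizures induced by corneal stimulation (6 Hz, 0.2 msec rectangular pulse, 3 sec) at 32 mA; absence of stun, forelimb clonus, vibrissae twitching and Straub-tail scored as protection. TPE determined in this assay; ED50 from evenly spaced doses.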
# [2] = test system: 6 Hz (44 mA) psychomotor seizures; assay: 6 Hz psychomotor seizure test, 44 mA (alone, combination with LEV, isobolographic study); conditions: for ED50 / ED50 (95% CI) 44 mA: s.c.; for ED50: read-out: ED50 (95% CI) 44 mA
# In short: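 Mice dosed s.c. or p.o. at 0.01 mL/g, alone or with LEV at fixed dose ratios proportional to ED50 values. Focal seizures induced by corneal stimulation (6 Hz, 0.2 msec pulse, 3 sec, 44 mA); animals without stun, forelimb clonus, vibrissae twitch or Straub-tail were counted as protected. ED50 values derived, with combinations analysed isobolographically.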
# [3] = Minimal motor impairment (rotarod)
smiles,measurement,setting,value
CCCCn1ccc(N2CCC(c3ccc(F)cc3F)CC2)c(Cl)c1=O [Co. No. 25-a],# protected/# tested,"[1]; 1 mg/kg s.c., 0.25 h",1/8
same,# protected/# tested,"[1]; 5 mg/kg s.c., 0.25 h",4/8
same,# protected/# tested,"[1]; 10 mg/kg s.c., 0.25 h",2/4 and 4/8
same,# protected/# tested,"[1]; 10 mg/kg s.c., 0.5 h",1/4
same,# protected/# tested,"[1]; 10 mg/kg s.c., 1 h",1/4
same,# protected/# tested,"[1]; 10 mg/kg s.c., 2 h",0/4
same,# protected/# tested,"[1]; 10 mg/kg s.c., 4 h",0/4
same,# protected/# tested,"[1]; 15 mg/kg s.c., 0.25 h",3/8
same,# protected/# tested,"[1]; 20 mg/kg s.c., 0.25 h",4/4 and 8/8
same,# protected/# tested,"[1]; 20 mg/kg s.c., 0.5 h",3/4
same,# protected/# tested,"[1]; 20 mg/kg s.c., 1 h",4/4
same,# protected/# tested,"[1]; 20 mg/kg s.c., 2 h",1/4
same,# protected/# tested,"[1]; 20 mg/kg s.c., 4 h",1/4
same,ED50,"[1]; Mus musculus, sc, at TPE, read-out: ED50 (95% CI) 32 mA",7.7 mg/kg
same,ED50 (95% CI) 32 mA,"[1]; s.c., at TPE",ED50 (95% CI): 7.7 mg/kg (2.3 to 18.4)
same,activity when administered alone,[2]; 10 mg/kg s.c.,"did not protect; also recorded: Co. No. 25-a (s.c.) 10 mg/kg tested in combination with LEV (i.p.)-Co. No. 25-a 10 mg/kg, not active when administered alone"
same,responders at 5 mg/kg,"[2]; Mus musculus, sc, 0.25 h, 5 mg/kg s.c., 0.25 h, read-out: # protected/# tested",0%
same,responders at 10 mg/kg,"[2]; Mus musculus, sc, 0.25 h, 10 mg/kg s.c., 0.25 h, read-out: # protected/# tested (converted)",0%
same,responders at 20 mg/kg,"[2]; Mus musculus, sc, 0.25 h, 20 mg/kg s.c., 0.25 h, read-out: # protected/# tested (converted)",25%
same,responders at 30 mg/kg,"[2]; Mus musculus, sc, 0.25 h, 30 mg/kg s.c., 0.25 h, read-out: # protected/# tested (converted)",37.5%
same,responders at 40 mg/kg,"[2]; Mus musculus, sc, 0.25 h, 40 mg/kg s.c., 0.25 h, read-out: # protected/# tested (converted)",87.5%
same,ED50,"[2]; Mus musculus, sc, 0.25 h, 0.25 hr TPE",29.1 mg/kg
same,ED50,"[2]; Mus musculus, sc, 1 h, 1 hr TPE",25.9 mg/kg
same,ED50 (95% CI) 44 mA,[2]; 0.25 hr TPE,ED50 (95% CI): 29.1 mg/kg (21.6 to 39.6)
same,ED50 (95% CI) 44 mA,[2]; 1 hr TPE,1 hr TPE: 25.9 mg/kg
same,# rotarod motor impairment/# tested,"[3]; 1 mg/kg s.c., 0.25 h, 32 mA group",0/8
same,# rotarod motor impairment/# tested,"[3]; 5 mg/kg s.c., 0.25 h, 32 mA group",0/8
same,# rotarod motor impairment/# tested,"[3]; 5 mg/kg s.c., 0.25 h, 44 mA group",1/8
same,# rotarod motor impairment/# tested,"[3]; 10 mg/kg s.c., 0.25 h, 32 mA group",0/4 and 0/8
same,# rotarod motor impairment/# tested,"[3]; 10 mg/kg s.c., 0.25 h, 44 mA group",0/8
same,# rotarod motor impairment/# tested,"[3]; 10 mg/kg s.c., 0.5 h, 32 mA group",0/4
same,# rotarod motor impairment/# tested,"[3]; 10 mg/kg s.c., 1 h, 32 mA group",1/4
same,# rotarod motor impairment/# tested,"[3]; 10 mg/kg s.c., 2 h, 32 mA group",0/4
same,# rotarod motor impairment/# tested,"[3]; 10 mg/kg s.c., 4 h, 32 mA group",0/4
same,# rotarod motor impairment/# tested,"[3]; 15 mg/kg s.c., 0.25 h, 32 mA group",0/8
same,# rotarod motor impairment/# tested,"[3]; 20 mg/kg s.c., 0.25 h, 32 mA group",0/4 and 0/8
same,# rotarod motor impairment/# tested,"[3]; 20 mg/kg s.c., 0.25 h, 44 mA group",0/8
same,# rotarod motor impairment/# tested,"[3]; 20 mg/kg s.c., 0.5 h, 32 mA group",1/4
same,# rotarod motor impairment/# tested,"[3]; 20 mg/kg s.c., 1 h, 32 mA group",1/4
same,# rotarod motor impairment/# tested,"[3]; 20 mg/kg s.c., 2 h, 32 mA group",0/4
same,# rotarod motor impairment/# tested,"[3]; 20 mg/kg s.c., 4 h, 32 mA group",1/4
same,# rotarod motor impairment/# tested,"[3]; 30 mg/kg s.c., 0.25 h, 44 mA group",0/8
same,# rotarod motor impairment/# tested,"[3]; 40 mg/kg s.c., 0.25 h, 44 mA group",0/8
